Assay results published in patent EP3221422B1, “COPPER(I) COMPLEXES FOR OPTOELECTRONIC APPLICATIONS” (cynora GmbH, priority 2014, dated 2016).

Assay: Solubility tests of copper(I) complexes in organic solvents
Assay type: physicochemical
Conditions: for Löslichkeit (qualitative): effect of the unsymmetrical ligand m-Tolylphosphin s
Method: Bei Koordination an ein Kupferatom könnten die m-Tolyl-Gruppen jeweils auf zwei verschiedene Weisen gedreht vorliegen (Figur 5). Vermutlich wird auf dieses Weise die Packung im Festkörper gestört, wodurch eine höhere Löslichkeit erzielt wird. In der Wärme (60 °C) wurde beispielsweise für Komplex 1-I-s eine Löslichkeit von rund 40 mg mL^-1 erreicht; weitere Löslichkeitsdaten sind in Tabelle 1 aufgeführt.
Komplex 1-I-s zeigt neben einer guten Löslichkeit auch eine besonders hohe Quanteneffizienz, sowohl in Pulver (93%) als auch im Dünnfilm (90%). Interessanterweise kommt es bei der Filmpräparation dieser Verbindung zu nahezu keiner Verschiebung der Emissionswellenlänge (Film: 550 nm, Pulver: 547 nm). Offenbar liegt bereits im Festkörper eine Verzerrung ähnlich der Situation im Film vor. Die Struktur wird, wie oben erläutert wurde, durch die als sterisch anspruchsvolle Gruppen wirkenden Tolylreste stabilisiert. Tabelle 1: Löslichkeitstests für Komplex 1-I-s.

In the case of “(MePyrPHOS)(Tris-m-tolyl-phosphin)2Cu2I2 [Komplex 1-I-s]”, the Löslichkeit (1-Heptanol, Konzentration: 5 mg/mL) is reported as “Ja (Wärme)”, the Löslichkeit (1-Heptanol, Konzentration: 10 mg/mL) is reported as “Ja (Wärme)” and the Löslichkeit (1-Heptanol, Konzentration: 2,5 mg/mL) is reported as “Ja”. The Löslichkeit (1-Hexanol, Konzentration: 5 mg/mL) was “Ja (Wärme)”, the Löslichkeit (1-Hexanol, Konzentration: 10 mg/mL) was “Ja (Wärme)” and the Löslichkeit (1-Hexanol, Konzentration: 2,5 mg/mL) was “Ja”. For the same substance, the Löslichkeit (Aceton, Konzentration: 5 mg/mL) was “Ja”, the Löslichkeit (Aceton, Konzentration: 10 mg/mL) was “Ja” and the Löslichkeit (Aceton, Konzentration: 2,5 mg/mL) was “Ja”. For the same substance, the Löslichkeit (Acetonitril, Konzentration: 5 mg/mL) was “Ja (Wärme)”, the Löslichkeit (Acetonitril, Konzentration: 10 mg/mL) was “Ja (Wärme)” and the Löslichkeit (Acetonitril, Konzentration: 2,5 mg/mL) was “Ja”. For the same substance, the Löslichkeit (Cyclooctan, Konzentration: 5 mg/mL) was “Ja (Wärme)”, the Löslichkeit (Cyclooctan, Konzentration: 10 mg/mL) was “Nein” and the Löslichkeit (Cyclooctan, Konzentration: 2,5 mg/mL) was “Ja”. For the same substance, the Löslichkeit (Essigester, Konzentration: 5 mg/mL) was “Ja”, the Löslichkeit (Essigester, Konzentration: 10 mg/mL) was “Ja” and the Löslichkeit (Essigester, Konzentration: 2,5 mg/mL) was “Ja”. For the same substance, the Löslichkeit (In der Wärme (60 °C), solvent not stated) was ~40 mg/mL, the “Löslichkeit (max.)” value (Mesitylen) was ≤ 20 mg/mL and the Löslichkeit (Mesitylen, Konzentration: 5 mg/mL) was “Ja”. For the same substance, the Löslichkeit (Mesitylen, Konzentration: 10 mg/mL) was “Ja”, the Löslichkeit (Mesitylen, Konzentration: 2,5 mg/mL) was “Ja” and the “Löslichkeit (max.)” value (O-Xylol) was ≤ 20 mg/mL. For the same substance, the Löslichkeit (O-Xylol, Konzentration: 5 mg/mL) was “Ja”, the Löslichkeit (O-Xylol, Konzentration: 10 mg/mL) was “Ja” and the Löslichkeit (O-Xylol, Konzentration: 2,5 mg/mL) was “Ja”. The “Löslichkeit (max.)” value (Tetralin) was ≤ 20 mg/mL, the Löslichkeit (Tetralin, Konzentration: 5 mg/mL) was “Ja” and the Löslichkeit (Tetralin, Konzentration: 10 mg/mL) was “Ja”. For the same substance, the Löslichkeit (Tetralin, Konzentration: 2,5 mg/mL) was “Ja” and the “Löslichkeit (qualitative)” value was “erhöhte Löslichkeit”.
With “(PyrPHOS)(tris-m-tolyl-phosphin)2Cu2I2 [Komplex 11-I-s]” the “Löslichkeit (qualitative)” value was “erhöhte Löslichkeit”.
In the case of “(Tris-(3-methyl-phenyl)phosphin)(4-tBu-pyridin)Cu2Br2 [E-Br-s]”, the “Löslichkeit (qualitative)” value is reported as “erhöhte Löslichkeit”.
With “(Tris-(3-methyl-phenyl)phosphin)(4-tBu-pyridin)Cu2I2 [E-I-s]” the “Löslichkeit (qualitative)” value was “erhöhte Löslichkeit”.
